# Reference: ChEMBL document CHEMBL1137564, “Substituted 2-pyrrolinone inhibitors of HIV-1 integrase” (Bioorg Med Chem Lett, 2007)
# Tests used:
# [1] = biological target: T1, Human immunodeficiency virus type 1 integrase (Human immunodeficiency virus 1, UniProt Q7ZJM1); assay: Inhibition of HIV1 integrase 3'-end processing activity
# [2] = biological target: T1, Human immunodeficiency virus type 1 integrase; assay: Inhibition of HIV1 integrase strand transfer activity
# [3] = biological target: T1, Human immunodeficiency virus type 1 integrase; assay: Inhibition of HIV1 integrase 3'-end processing activity in presence of Mg2+
# [4] = biological target: T1, Human immunodeficiency virus type 1 integrase; assay: Inhibition of HIV1 integrase strand transfer activity in presence of Mg2+
# [5] = biological target: Human immunodeficiency virus type 1 integrase (Human immunodeficiency virus 1) (UniProt Q7ZJM1); assay: Selectivity for HIV1 integrase strand transfer activity over 3'-end processing activity in presence of Mg2+
# Chain of Human immunodeficiency virus type 1 integrase (Human immunodeficiency virus 1) (Q7ZJM1 as listed by the source): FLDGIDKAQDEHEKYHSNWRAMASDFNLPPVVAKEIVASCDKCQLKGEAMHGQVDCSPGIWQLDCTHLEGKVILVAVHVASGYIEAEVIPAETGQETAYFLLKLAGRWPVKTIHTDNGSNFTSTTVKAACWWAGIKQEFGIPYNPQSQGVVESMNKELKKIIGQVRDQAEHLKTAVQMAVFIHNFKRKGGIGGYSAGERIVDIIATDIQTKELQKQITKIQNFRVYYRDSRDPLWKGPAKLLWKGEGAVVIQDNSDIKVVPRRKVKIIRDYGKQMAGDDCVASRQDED
# T1 sequence (Q7ZJM1 whole entry): as the sequence (Q7ZJM1 as listed by the source) above
Ratio IC50 [5],SMILES,IC50 [1],IC50 [2],IC50 [3],IC50 [4]
–,COc1ccc(C2C(C(=O)c3ccc(Br)cc3)=C(O)C(=O)N2c2cc(C(C)(C)C)on2)cc1OC (stereo unspecified),45 µM,43 µM,–,–
–,CCOc1ccc(C(=O)C2=C(O)C(=O)N(c3nccs3)C2c2ccc(OC)cc2)cc1 (stereo unspecified),> 100 µM,90 µM,–,–
–,Cc1ccc(C(=O)C2=C(O)C(=O)N(c3nccs3)C2c2ccc(F)cc2)cc1 (stereo unspecified),> 100 µM,78 µM,–,–
–,Cc1ccc(C(=O)C2=C(O)C(=O)N(c3nccs3)C2c2ccc(Cl)cc2)cc1 (stereo unspecified),56 µM,39 µM,–,–
–,O=C(C1=C(O)C(=O)N(c2nc3ccccc3s2)C1c1cccnc1)c1ccc(Cl)cc1 (stereo unspecified),> 100 µM,90 µM,–,–
–,CCOc1ccc(C(=O)C2=C(O)C(=O)N(c3nnc(C)s3)C2c2ccc(F)cc2)cc1 (stereo unspecified),> 100 µM,> 100 µM,–,–
–,COc1ccc(C2C(C(=O)c3ccc(Br)cc3)=C(O)C(=O)N2c2cccc(C(F)(F)F)c2)cc1OC (stereo unspecified),47 µM,26 µM,–,–
–,O=C(C1=C(O)C(=O)N(c2nc3ccccc3s2)C1c1ccc2c(c1)OCO2)c1ccccc1 (stereo unspecified),57 µM,21 µM,–,–
–,O=C(C1=C(O)C(=O)N(c2nc3ccccc3s2)C1c1ccccn1)c1ccc(Cl)cc1 (stereo unspecified),> 100 µM,83 µM,–,–
–,Cc1ccc(C(=O)C2=C(O)C(=O)N(c3ncc(S(=O)(=O)c4ccc([N+](=O)[O-])cc4)s3)C2c2cccc(Cl)c2)cc1 (stereo unspecified),27 µM,8 µM,> 100 µM,6.1 µM
–,CCOc1ccc(C(=O)C2=C(O)C(=O)N(c3nccs3)C2c2ccc(O)c(OC)c2)cc1 (stereo unspecified),57 µM,30 µM,–,–
–,CCOC(=O)c1sc(N2C(=O)C(O)=C(C(=O)c3ccccc3)C2c2ccc(F)cc2)nc1C (stereo unspecified),44 µM,21 µM,–,–
–,Cc1ccc(C(=O)C2=C(O)C(=O)N(CCCn3ccnc3)C2c2ccc(Cl)cc2)cc1 (stereo unspecified),93 µM,67 µM,–,–
–,CC(C)(C)c1ccc(C2C(C(=O)c3ccc(F)cc3)=C(O)C(=O)N2c2nncs2)cc1 (stereo unspecified),64 µM,43 µM,–,–
–,CCOC(=O)c1sc(N2C(=O)C(O)=C(C(=O)c3ccc(C)cc3)C2c2ccc(F)cc2)nc1C (stereo unspecified),> 100 µM,33 µM,–,–
–,COc1ccc(C(=O)C2=C(O)C(=O)N(CCc3ccccc3)C2c2ccc(Br)cc2)cc1OC (stereo unspecified),60 µM,42 µM,–,–
–,Cc1ccc(C2C(C(=O)c3ccc(Cl)cc3)=C(O)C(=O)N2CC(=O)O)cc1 (stereo unspecified),84 µM,69 µM,–,–
> 10,COc1ccc(OC)c(C(=O)C2=C(O)C(=O)N(CCCCCC(=O)O)C2c2ccc(Cl)cc2)c1 (stereo unspecified),88 µM,40 µM,> 100 µM,10 µM
